Data from patent US20110311613A1, “TOPICAL FORMULATIONS OF FLAP INHIBITORS FOR THE TREATMENT OF DERMATOLOGICAL CONDITIONS” (AMIRA PHARMACEUTICAL, INC., priority 2008, published 2011).
Read-outs that look alike come from different tables or passages of the source.

Tests used:
[1] = Solubility in topical formulation (75% propylene glycol, 15% transcutol, 10% water); assay type: physicochemical; details: aqueous with cosolvent or surfactant or cyclodextrin, solution of 75% propylene glycol, read-out: soluble in topical formulation
Experimental: In one aspect, a topical formulation of a FLAP inhibitor compound is prepared by mixing a FLAP inhibitor compound with propylene glycol, transcutol and water. In one aspect, the topical formulation includes a FLAP inhibitor compound (10 mg/mL) in a solution of 75% propylene glycol, 15% transcutol, 10% water.
Using this formulation, the following FLAP inhibitor compounds are all soluble at 10 mg/mL: Compound A (Na salt), Compound B (Na salt), Compound C (acid and Na salt), Compound F (Na salt), Compound G (Na salt), Compound I (acid), and Compound J (Na salt).

[2] = Rat abraded skin model, skin penetration (plasma levels) following dermal administration; assay type: in vivo; details: for plasma levels (PK analysis): abraded skin, samples at 2, 4, 24 and 72 hours; for concentration at 24 h: male, Sprague Dawley, plasma, topical, 20 mg, 2 mL of 10 mg/mL solution on abraded skin, occluded 24 hours, read-out: plasma levels at the 24 hour time point
Experimental: (§1) Male Sprague Dawley Rats (n=3 per group) were shaved on the back such that approximately 20% of the body area surface was exposed. The shaved skin was mildly abraded then 2 mL of a 10 mg/mL solution of the test compound in a formulation containing 75% propylene glycol, 15% transcutol, 10% water was applied to the abraded skin. The site of administration was occluded for 24 hours after which time the skin was cleansed of excess material (if any). Plasma samples were drawn from each rat at 2, 4, 24 and 72 hours.

Male Sprague Dawley Rats = assay: Rat abraded skin model, acute irritancy (Draize scoring) following dermal administration; assay type: in vivo; details: 2 mL of 10 mg/mL solution on abraded skin, occluded 24 hours; erythema, edema scored at 24, 48 and 72 hours; each animal
Experimental: as §1
Visual analysis of erythema, edema or other dermal findings were recorded prior to dosing then at 24, 48 and 72 hours. Scoring followed a Draize protocol.

[3] = Trough plasma concentration in subchronic smoking mouse model; details: BALB/c mice, combination DP2 receptor antagonist + FLAP inhibitor
Experimental: (§5) BALB/c mice were divided into groups and acclimatized in cages for 24 hours (day 0). The control group was exposed to air and the test group was exposed to smoke from seven unfiltered cigarettes per day for 8 days (day 1 to day 8). […] On day 14, bronchioalveolar lavage fluid (BALF) is tested for influx of cells, cytokines, chemokines (e.g., KC, IL-17, MIP-2, IL-6), mucin, and/or proteins. Lung histology is also examined.

Leukotriene B4 (LTB4) = assay: Mouse arachidonic acid-induced ear inflammation model, leukotriene analysis (EIA) of LTB4; assay type: in vivo
Experimental: (§2) A mouse arachidonic acid (AA)—induced ear inflammation model was utilized to determine the extent of inhibition of ear swelling and leukotriene (LT) production by oral and topical application of a 5-lipoxygenase-activating protein (FLAP) inhibitor. Methods were adapted from Byrum et al., J Exp Med. 1997 Mar. 17; 185(6):1065-75).
(§3) Female CD-1 mice (weighing 18-20 grams) were administered compound orally (30 mg/kg in 10 ml/kg of 0.5% methylcellulose vehicle) or topically at concentrations of 0.01-10% by weight to the experimental ear and vehicle was applied to the opposite control ear. Four hours following compound administration a […] aliquot of a 4 mg/ml solution of AA in ethanol was applied to the experimental (right) ear and vehicle (ethanol) was applied to the control (left) ear. Thirty minutes later mice were placed into an enclosed Plexiglas chamber and exposed to CO2 for a period of 1-2 minutes or until breathing ceased. Ear biopsies were then taken for assessment of inflammation and leukotriene levels.
(§4) The ear punch was placed into a tris buffer containing 0.01% triton x and homogenized using a polytron probe homogenizer. The sample was then centrifuged at 10,000×g for 10 minutes at 4° C. Leukotriene B4 (LTB4) and cysteinyl leukotriene (CysLT) concentrations in the supernatant were determined by enzyme-immunoassay (EIA).

[4] = test system: cysteinyl leukotriene (CysLT); assay: Mouse arachidonic acid-induced ear inflammation model, leukotriene analysis (EIA) of CysLT; assay type: in vivo
Experimental: as §2, §3, §4

[5] = test system: arachidonic acid-induced ear inflammation; assay: Mouse arachidonic acid-induced ear inflammation model, ear inflammation (ear punch weight); assay type: in vivo
Experimental: as §2, §3
An eight mm ear punch was taken from a similar location of each experimental ear and each control ear and weighed. The extent of inflammation was determined by the difference in weight between the experimental ear and control ear [experimental ear (mg)-control ear (mg)]. A typical response for this assay is in the range of 4 and 12 mg increase in weight. Ear punches were then frozen for later assessment of leukotrienes.

[6] = mouse, in vivo, 10 mg/kg
Experimental: as §5

Row | solubility [1] | plasma levels (PK analysis) [2] | concentration at 24 h [2] | SMILES | Draize score (Male Sprague Dawley Rats) | further results
1 | ≥ 10000 µg/mL | measurable plasma levels | < 110 ng/mL | CC(C)(C)Sc1c(CC(C)(C)C(=O)O)n(Cc2ccc(-c3ccc(F)cn3)cc2)c2ccc(OCc3ccc4ccccc4n3)cc12 [Compound F, 3-[3-tert-Butylsulfanyl-1-[4-(5-fluoro-pyridin-2-yl)-benzyl]-5-(quinolin-2-ylmethoxy)-1H-indol-2-yl]-2,2-dimethyl-propionic acid] | 0 | 
2 | ≥ 10000 µg/mL | measurable plasma levels | < 110 ng/mL | COc1cnc(-c2ccc(Cn3c(CC(C)(C)C(=O)O)c(SC(C)(C)C)c4cc(OCc5cnc(C)cn5)ccc43)cc2)nc1 [Compound B, 3-[3-tert-Butylsulfanyl-1-[4-(5-methoxy-pyrimidin-2-yl)-benzyl]-5-(5-methyl-pyrazin-2-ylmethoxy)-1H-indol-2-yl]-2,2-dimethyl-propionic acid] | 0 | 
3 |  |  |  | COc1ccc(-c2ccc(Cn3c(CC(C)(C)C(=O)O)c(SC(C)(C)C)c4cc(OCc5ccc(C)cn5)ccc43)cc2)cn1 [FLAP inhibitor, 3-(3-(tert-butylthio)-1-(4-(6-methoxypyridin-3-yl)benzyl)-5-((5-methylpyridin-2-yl)methoxy)-1H-indol-2-yl)-2,2-dimethylpropanoic acid] |  | Plasma concentration @ trough [3]: 136 (FLAP inhibitor) nM
4 | ≥ 10000 µg/mL | measurable plasma levels | < 110 ng/mL | CC(C)(C)Sc1c(CC(C)(C)C(=O)O)n(Cc2ccc(-c3ccc(F)cn3)cc2)c2ccc(OCc3ccccn3)cc12 [Compound J, 3-[3-tert-butylsulfanyl-1-[4-(5-fluoro-pyridin-2-yl)-benzyl]-5-(pyridin-2-ylmethoxy)-1H-indol-2-yl]-2,2-dimethyl-propionic acid] | 0 | 
5 | ≥ 10000 µg/mL | measurable plasma levels | < 110 ng/mL | CC(=O)N1CCC[C@H]1COc1ccc2c(c1)c(SC(C)(C)C)c(CC(C)(C)C(=O)O)n2Cc1ccc(Cl)cc1 [Compound I, 3-[5-((S)-1-Acetyl-pyrrolidin-2-ylmethoxy)-3-tert-butylsulfanyl-1-(4-chloro-benzyl)-1H-indol-2-yl]-2,2-dimethyl-propionic acid] | 0 | 
6 | ≥ 10000 µg/mL | measurable plasma levels | < 110 ng/mL | COc1cnc(-c2ccc(Cn3c(CC(C)(C)C(=O)O)c(SC(C)(C)C)c4cc(OCc5ccc(C)cn5)ccc43)cc2)nc1 [Compound A, 3-[3-tert-Butylsulfanyl-1-[4-(5-methoxy-pyrimidin-2-yl)-benzyl]-5-(5-methyl-pyridin-2-ylmethoxy)-1H-indol-2-yl]-2,2-dimethyl-propionic acid] | 0 | reduction of LTB4 levels (Leukotriene B4 (LTB4); applied dermally 4 hours prior to AA treatment (FIG. 3B)): about 55%; reduction of LTB4 levels (Leukotriene B4 (LTB4); oral, 30 mg/kg, 4 hours prior to AA treatment (FIG. 2B)): about 33%; reduction of CysLT levels ([4]; applied dermally 4 hours prior to AA treatment (FIG. 3C)): about 37%; reduction of CysLT levels ([4]; oral, 30 mg/kg, 4 hours prior to AA treatment (FIG. 2C)): about 57%; reduction of inflammation by measure of change in ear weight ([5]; applied dermally 4 hours prior to AA treatment (FIG. 3A)): about 60%; reduction of inflammation by measure of change in ear weight ([5]; oral, 30 mg/kg, 4 hours prior to AA treatment (FIG. 2A)): about 65%; topical concentration of maximal activity ([5]; topical concentrations of 0.01-10%, all three endpoints (ear weight, LTB4, CysLT)): 0.1%
7 | ≥ 10000 µg/mL | measurable plasma levels | < 110 ng/mL | CCC(CC)(Cc1c(SC(C)(C)C)c2cc(OCc3ccc(C)cn3)ccc2n1Cc1ccc(-c2ncc(OC)cn2)cc1)C(=O)O [Compound G, 2-[3-tert-Butylsulfanyl-1-[4-(5-methoxy-pyrimidin-2-yl)-benzyl]-5-(5-methyl-pyridin-2-ylmethoxy)-1H-indol-2-ylmethyl]-2-ethyl-butyric acid] | 0 | 
8 |  |  |  | CCN(Cc1cc(C(F)(F)F)ccc1-c1cncc(CC(=O)O)c1)C(=O)OCc1ccccc1 [DP2 receptor antagonist] |  | Plasma concentration @ trough [6]: <10 nM
9 | ≥ 10000 µg/mL | measurable plasma levels | < 110 ng/mL | COc1cnc(-c2ccc(Cn3c(CC(C)(C)C(=O)O)c(SC(C)(C)C)c4cc(OC[C@@H]5Cc6ccccc6N5C(C)=O)ccc43)cc2)nc1 [Compound C, 3-{5-((S)-1-Acetyl-2,3-dihydro-1H-indol-2-ylmethoxy)-3-tert-butylsulfanyl-1-[4-(5-methoxy-pyrimidin-2-yl)-benzyl]-1H-indol-2-yl}-2,2-dimethyl-propionic acid] | 0 | 
